Source: patent US20110077248A1, “IMIDAZOPYRIDINE AND RELATED ANALOGS AS SIRTUIN MODULATORS” (Sirtris Pharmaceuticals, Inc., priority 2008, published 2011)
One block for each compound: values may come before it.

Biological target: T1, SIRT1 (Homo sapiens, UniProt Q96EB6)
T1 construct: His-tag (N); made in house; host or cells: E. coli BL21(DE3), T7-promoter vector
T1 sequence (Q96EB6 1-747): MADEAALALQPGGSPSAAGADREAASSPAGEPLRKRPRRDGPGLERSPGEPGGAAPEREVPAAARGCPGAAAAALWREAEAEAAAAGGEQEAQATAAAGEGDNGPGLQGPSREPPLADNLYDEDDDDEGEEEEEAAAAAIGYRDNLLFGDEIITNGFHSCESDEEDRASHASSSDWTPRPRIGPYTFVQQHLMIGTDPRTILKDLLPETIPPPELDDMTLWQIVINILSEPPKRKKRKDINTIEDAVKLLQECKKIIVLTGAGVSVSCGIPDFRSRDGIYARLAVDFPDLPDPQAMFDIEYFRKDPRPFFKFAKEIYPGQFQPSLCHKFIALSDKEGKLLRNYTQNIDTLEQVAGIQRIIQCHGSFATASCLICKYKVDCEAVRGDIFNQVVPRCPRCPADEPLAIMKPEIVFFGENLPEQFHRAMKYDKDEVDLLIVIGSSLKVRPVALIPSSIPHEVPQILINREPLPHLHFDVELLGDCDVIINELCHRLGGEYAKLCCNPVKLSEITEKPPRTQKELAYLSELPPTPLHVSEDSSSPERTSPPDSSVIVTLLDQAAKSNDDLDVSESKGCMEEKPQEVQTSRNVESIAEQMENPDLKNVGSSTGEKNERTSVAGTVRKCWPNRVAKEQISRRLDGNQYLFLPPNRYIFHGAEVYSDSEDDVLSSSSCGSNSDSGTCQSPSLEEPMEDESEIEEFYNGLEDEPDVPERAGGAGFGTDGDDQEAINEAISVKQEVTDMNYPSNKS
Test: Mass spectrometry based assay for modulators of SIRT1 activity (deacetylation of p53-based acetylated peptide)
Type: biochemical
Conditions: for EC1.5: concentration of test compound that results in 150% activation of SIRT1, 0.5 μM peptide substrate, 120 μM βNAD+, 10 nM SIRT1, 25 min, 25° C.; for Emax: percent maximum fold activation of SIRT1
How it was run: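 Reaction: 10 nM His-tagged human SIRT1 (E. coli-expressed) with 0.5 μM 5TMR-labelled acetylated p53-derived peptide and 120 μM NAD+, 25 min at 25 °C, pH 8 Tris-acetate buffer; formic acid quench. Deacetylation quantified by mass spectrometry against a DMSO control; EC1.5 = concentration giving 150% activation.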

SMILES: O=C(Nc1nccs1)c1cccn2cc(-c3cccc(C(F)F)c3)nc12 [Compound 206]
EC1.5: B (EC1.5 1-25 uM) | Emax: < 200%

SMILES: O=C(Nc1cccn2cc(-c3ccccc3)nc12)C1CCNCC1 [Compound 103]
EC1.5: C (EC1.5>25 uM) | Emax: < 200%

SMILES: O=C(Nc1ccccn1)c1cccn2cc(-c3cccc(CN4CCCC4)c3)nc12 [Compound 257]
EC1.5: B (EC1.5 1-25 uM) | Emax: > 200%

SMILES: O=C(Nc1cccc(CN2CCOCC2)n1)c1cccn2cc(-c3cccc(Cl)c3)nc12 [Compound 234]
EC1.5: A (EC1.5<1.0 uM) | Emax: > 200%

SMILES: O=C(Nc1nc(CN2CCOCC2)cs1)c1nccn2cc(-c3ccc(F)cc3C(F)(F)F)nc12 [Compound 260]
EC1.5: A (EC1.5<1.0 uM) | Emax: > 200%

SMILES: O=C(Nc1nccs1)c1cccn2cc(-c3cccc(F)c3)nc12 [Compound 154]
EC1.5: C (EC1.5>25 uM) | Emax: < 200%

SMILES: Cc1cnc(NC(=O)c2nccn3cc(-c4ccccc4OC(F)(F)F)nc23)s1 [Compound 187]
EC1.5: B (EC1.5 1-25 uM) | Emax: > 200%

SMILES: O=C(Nc1cccn2cc(-c3cccc(C(F)(F)F)c3)nc12)c1ncccn1 [Compound 122, N-(2-(3-(trifluoromethyl)phenyl)imidazo[1,2-a]pyridin-8-yl)pyrimidine-2-carboxamide]
EC1.5: B (EC1.5 1-25 uM) | Emax: > 200%

SMILES: Cc1cnc(NC(=O)c2nccn3cc(-c4ccccc4C(F)(F)F)nc23)s1 [Compound 173]
EC1.5: A (EC1.5<1.0 uM) | Emax: > 200%

SMILES: O=C(Nc1nc(CN2CCOCC2)cs1)c1cccn2cc(-c3ccc(C(F)F)cc3)nc12 [Compound 204]
EC1.5: B (EC1.5 1-25 uM) | Emax: > 200%

SMILES: Cc1ccc(-c2cn3ccnc(C(=O)Nc4nccs4)c3n2)cn1 [Compound 162]
EC1.5: C (EC1.5>25 uM) | Emax: < 200%

SMILES: O=C(Nc1cccn2cc(-c3cccc(-c4ccccc4)c3)nc12)c1ncccn1 [Compound 125]
EC1.5: B (EC1.5 1-25 uM) | Emax: < 200%

SMILES: O=C(Nc1cccc(CN2CCOCC2)n1)c1cccn2cc(-c3ccc(C(F)F)cc3)nc12 [Compound 205]
EC1.5: A (EC1.5<1.0 uM) | Emax: > 200%

SMILES: O=C(Nc1nccs1)c1cccn2cc(-c3ccc(CN4CCCC4)cc3)nc12 [Compound 252]
EC1.5: B (EC1.5 1-25 uM) | Emax: > 200%

SMILES: O=C(Nc1cnccn1)c1nccn2cc(-c3ccc(F)cc3C(F)(F)F)nc12 [Compound 247]
EC1.5: B (EC1.5 1-25 uM) | Emax: > 200%

Next, values leading:

EC1.5: C (EC1.5>25 uM) | Emax: < 200%
SMILES: O=C(Nc1nccs1)c1cccn2cc(-c3ccc(N4CCCC4)cc3)nc12 [Compound 166]

EC1.5: A (EC1.5<1.0 uM) | Emax: > 200%
SMILES: O=C(Nc1nccs1)c1cccn2nc(-c3cc(N4CCOCC4)ccc3C(F)(F)F)nc12 [Compound 221, 2-(5-morpholino-2-(trifluoromethyl)phenyl)-N-(thiazol-2-yl)-[1,2,4]triazolo[1,5-a]pyridine-8-carboxamide]

EC1.5: B (EC1.5 1-25 uM) | Emax: > 200%
SMILES: Cc1ccc(-c2nc3c(C(=O)Nc4cccc(CN5CCOCC5)n4)cccn3n2)cn1 [Compound 213]

EC1.5: A (EC1.5<1.0 uM) | Emax: > 200%
SMILES: O=C(Nc1nc(CN2CCOCC2)cs1)c1cccn2cc(-c3cccc(C(F)(F)F)c3)nc12 [Compound 132, N-(4-(morpholinomethyl)thiazol-2-yl)-2-(3-(trifluoromethyl)phenyl)imidazo[1,2-a]pyridine-8-carboxamide]

EC1.5: A (EC1.5<1.0 uM) | Emax: > 200%
SMILES: O=C(Nc1nccs1)c1cccn2cc(-c3cccc(CN4CCOCC4)c3)nc12 [Compound 254]

EC1.5: B (EC1.5 1-25 uM) | Emax: > 200%
SMILES: O=C(Nc1ncc(CN2CCOCC2)s1)c1cccn2cc(-c3cccc(OC(F)(F)F)c3)nc12 [Compound 135]
